Read-outs that look alike come from different tables or passages of the source.
What was measured:
[1] = tested on: human growth hormone (532) promoter; test: High-throughput luciferase reporter assay, human Growth Hormone promoter (Screen III); type: cell-based; conditions: 532 cells, 6 hours; for FOLD INHIBITION RELATIVE TO SOLVENT CONTROL, hGH: Screen III inhibitors; for FOLD INDUCTION RELATIVE TO SOLVENT CONTROL, hGH: Screen III activators
MMTV (M10) promoter = test: High-throughput luciferase reporter assay, MMTV promoter (Screen III); type: cell-based, mouse; conditions: M10 cells, 6 hours; for FOLD INHIBITION RELATIVE TO SOLVENT CONTROL, MMTV: Screen III inhibitors; for FOLD INDUCTION RELATIVE TO SOLVENT CONTROL, MMTV: Screen III activators
Method: pMluci and pSV2Neo, an antibiotic resistance plasmid (112), were co-transfected into NIH/3T3 mouse fibroblast cells using the calcium phosphate precipitation method (103) with a commercially available kit (Pharmacia, Piscataway N.J.). Two days later, cells were transferred to media containing 0.4 mg/ml G418 and were grown for an additional 10-14 days. G418-resistant clones were isolated by standard methods. Once sufficient cell numbers were obtained, clones were analyzed based on several criteria: constitutive luciferase production, induction of luciferase expression by dexamethasone (1 μm, Sigma, St. Louis, Mo.), satisfactory attachment to microtiter plates used in the high-throughput screen and acceptable standard deviation in multiple luciferase expression assays (see below for assay protocol). This analysis was carried out using the luciferase assay conditions described above. Of the clones which satisfied the above criteria for the high throuphput screen, one clone, M10, was selected for use.

[2] = tested on: human G-CSF (G21) promoter; test: High-throughput luciferase reporter assay, G-CSF promoter (Screen III); conditions: for FOLD INDUCTION RELATIVE TO SOLVENT CONTROL, GCSF: Screen III activators
[3] = Screen III inhibitors, G21 cells, 6 hours

SMILES	FOLD INHIBITION RELATIVE TO SOLVENT CONTROL, hGH [1] [fold]	FOLD INHIBITION RELATIVE TO SOLVENT CONTROL, MMTV (MMTV (M10) promoter) [fold]	FOLD INHIBITION RELATIVE TO SOLVENT CONTROL, GCSF [2, 3] [fold]	FOLD INDUCTION RELATIVE TO SOLVENT CONTROL, hGH [1] [fold]	FOLD INDUCTION RELATIVE TO SOLVENT CONTROL, MMTV (MMTV (M10) promoter) [fold]	FOLD INDUCTION RELATIVE TO SOLVENT CONTROL, GCSF ([2]; G21 cells, 6 hours) [fold]	FOLD INHIBITION RELATIVE TO SOLVENT CONTROL, GCSF [2]
O=C(c1ccc(O)c(O)c1)c1c(O)cc(O)cc1O [compound 660]	0.34	1.04	10.0	–	–	–	–
CN(C)c1ccc(C(=C2C=CC(=[N+](C)C)C=C2)c2ccc([N+](C)(C)C)cc2)cc1 [compound 670]	–	–	–	0.52	0.79	> 3	–
C1CCNCC1 [compound 759]	5.88	0.95	–	–	–	–	0.64
CC(=O)OCC(=O)[C@@]1(O)CC[C@H]2[C@@H]3CCC4=CC(=O)C=C[C@]4(C)[C@H]3[C@@H](O)C[C@@]21C [compound 765]	–	–	–	1.30	2.66	0.96	–
CCOc1ccc2nc3cc(N)ccc3c(N)c2c1 [compound 790]	–	–	–	5.94	0.58	0.01	–
O=C1OC2(c3cc(I)c(O)c(I)c3Oc3c2cc(I)c(O)c3I)c2c(Cl)c(Cl)c(Cl)c(Cl)c21 [compound 792]	–	–	–	5.31	1.21	0.94	–
Clc1ccc(Sc2cc(Cl)c(Cl)cc2Cl)cc1 [compound 828]	–	–	–	1.34	2.20	1.47	–
N=c1ccc2nc3ccc(N)cc3sc-2c1 [compound 836]	–	–	–	0.23	0.58	3.20	–
CC1(C)O[C@@H]2C[C@H]3[C@@H]4CCC5=CC(=O)C=C[C@]5(C)[C@@]4(F)[C@@H](O)C[C@]3(C)[C@]2(C(=O)CO)O1 [compound 848]	–	–	–	1.28	2.43	0.75	–
CCCCCCCCCCCCCCCC(=O)OCC(COC(=O)CCCCCCCCCCCCCCC)OC(=O)CCCCCCCCCCCCCCC [compound 856]	–	–	–	6.49	0.42	0.28	–
Nc1ccc(C=CC(=O)O)cc1 [compound 1234]	–	–	–	0.51	1.03	4.97	–
Cc1c(C2(c3cc(Br)c(O)c(Br)c3C)OS(=O)(=O)c3ccccc32)cc(Br)c(O)c1Br [compound 1251]	–	–	–	15.19	0.33	0.14	–
Clc1cc(Cl)cc(Br)c1 [compound 1255]	–	–	–	0.43	1.09	6.74	–
Nc1c(Cl)ncnc1Cl [compound 1269]	–	–	–	0.91	2.18	0.72	–
Nc1ccc2c(c1)Cc1ccccc1-2 [compound 1316]	–	–	–	1.39	2.33	0.74	–
Nc1ccc2c(c1)C(=O)c1ccccc1-2 [compound 1318]	–	–	–	0.85	2.41	1.13	–

SMILES	FOLD INHIBITION RELATIVE TO SOLVENT CONTROL, hGH [1] [fold]	FOLD INHIBITION RELATIVE TO SOLVENT CONTROL, MMTV (MMTV (M10) promoter) [fold]	FOLD INHIBITION RELATIVE TO SOLVENT CONTROL, GCSF [2, 3] [fold]	FOLD INDUCTION RELATIVE TO SOLVENT CONTROL, hGH [1] [fold]	FOLD INDUCTION RELATIVE TO SOLVENT CONTROL, MMTV (MMTV (M10) promoter) [fold]	FOLD INDUCTION RELATIVE TO SOLVENT CONTROL, GCSF ([2]; G21 cells, 6 hours) [fold]	FOLD INHIBITION RELATIVE TO SOLVENT CONTROL, GCSF [2]
Nc1ccc(S(=O)(=O)O)c2cccc(O)c12 [compound 1337]	–	–	–	15.87	0.23	0.07	–
NCc1ccc(S(N)(=O)=O)cc1 [compound 1375]	–	–	–	0.04	1.37	8.94	–
Cc1ccc(N)c(S(=O)(=O)O)c1 [compound 1376]	–	–	–	0.04	1.32	6.37	–
Cc1ccc(C(=O)c2ccccc2N)cc1 [compound 1384]	–	–	–	0.50	2.43	1.33	–
Cc1cc(N)sn1 [compound 1397]	–	–	–	0.57	1.13	3.63	–
Nc1ccccc1SSc1ccccc1N [compound 1482]	–	–	–	0.54	1.07	3.99	–
Nc1ccc(SSc2ccc(N)cc2)cc1 [compound 1483]	–	–	–	0.38	1.09	4.64	–
Nc1nc(-c2ccccc2)cs1 [compound 1499]	–	–	–	5.55	0.61	0.24	–
Nc1nc2nc[nH]c2c(=S)[nH]1 [compound 1521]	–	–	–	0.73	0.92	3.59	–
Nc1nccs1 [compound 1550]	–	–	–	5.44	0.87	0.04	–
NC1=NCCS1 [compound 1552]	–	–	–	7.26	0.52	1.23	–
Nc1c(Cl)c(Cl)nc(C(=O)O)c1Cl [compound 1561]	–	–	–	8.05	0.48	0.23	–
Brc1ccc2c3c(cccc13)CC2 [compound 1573]	–	–	–	0.34	4.30	1.49	–
Nc1ncnc2c1nc(Br)n2[C@@H]1O[C@H](CO)[C@@H](O)[C@H]1O [compound 1583]	–	–	–	0.12	0.88	5.82	–
Cc1ccc(P(CCP(c2ccc(C)cc2)c2ccc(C)cc2)c2ccc(C)cc2)cc1 [compound 1591]	5.55	0.96	0.56	–	–	–	–
CC1(C)[C@@H](C(=O)OCC(F)(F)C(F)(F)C(F)(F)C(F)(F)C(F)(F)C(F)F)CC[C@@]1(C)C(=O)OCC(F)(F)C(F)(F)C(F)(F)C(F)(F)C(F)(F)C(F)F [compound 1592]	–	–	–	0.74	1.34	3.20	–

Reference: patent US6203976A, “Methods of preparing compositions comprising chemicals capable of transcriptional modulation” (OSI Pharmaceuticals, Inc., priority 1994, dated 2001)
